Assay results taken from PMC6744390 (Drug Metabolism and Disposition, 2019).

Legend:
[1] = Plasma protein binding by high-throughput equilibrium dialysis; type: in vitro ADME, dog; conditions: both, dog, plasma
plasma proteins = assay: as above; type: in vitro ADME, dog; conditions: Mann–Whitney U test, n = 6 per group

SMILES | fraction unbound at 4 h, 4 µM [1] | difference in plasma protein binding between H1 and H2 allele plasma (plasma proteins)
Cc1ccc(-c2cc(C(F)(F)F)nn2-c2ccc(S(N)(=O)=O)cc2)cc1 [celecoxib] | < 0.02 | No significant difference
COc1c(C)c2c(c(O)c1C/C=C(\C)CCC(=O)O)C(=O)OC2 [mycophenolic acid] |  | No significant difference
